Laboratory results as given in PubChem BioAssay (NCI).
“And” between values parts separate entries of the source, which are not always exact repeats. Equal values may be shown once.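 These data come from cells grown in 96-well plates and exposed to compound for 48 hours at five concentrations. The concentration for 50% growth inhibition is given as GI50. Definition used: TGI = concentration required for complete inhibition of growth.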

Columns and labels:
Test in all cases: NCI anticancer screen, dose series, 48 h
[1] = test system: MDA-MB-468 breast
[2] = test system: HCT-116 colon
[3] = test system: HOP-62 NSCLC
[4] = test system: SW-620 colon
[5] = test system: 786-0 renal
[6] = test system: DU-145 prostate
[7] = test system: NCI-H460 lung
[8] = test system: TK-10 renal
[9] = test system: LOX IMVI melanoma
[10] = test system: MCF7 breast
[11] = test system: SF-295 CNS
[12] = test system: UACC-62 melanoma
[13] = test system: COLO 205 colon
[14] = test system: OVCAR-3 ovarian
[15] = test system: MDA-MB-435
[16] = test system: SNB-19 CNS
[17] = test system: ACHN renal
[18] = test system: HCT-15 colon
[19] = test system: IGROV1 ovarian
[20] = test system: NCI-H522 lung
[21] = test system: SNB-75 CNS
[22] = test system: RXF 393 renal
[23] = test system: SF-268 CNS
[24] = test system: NCI-H23 lung
[25] = test system: UACC-257 melanoma
[26] = test system: MALME-3M melanoma
[27] = test system: NCI-H226 lung
[28] = test system: OVCAR-8 ovarian
[29] = test system: M14 melanoma
[30] = test system: HL-60(TB) leukemia
[31] = test system: EKVX NSCLC
[32] = test system: HCC-2998 colon
[33] = test system: CCRF-CEM leukemia
[34] = test system: SN12C renal
[35] = test system: BT-549 breast
[36] = test system: PC-3 prostate
[37] = test system: SK-MEL-28 melanoma
[38] = test system: K-562 leukemia
[39] = test system: T-47D breast
[40] = test system: MDA-MB-231 breast
[41] = test system: A549 NSCLC
[42] = test system: HT29 colon
[43] = test system: A498 renal
[44] = test system: SK-OV-3 ovarian
[45] = test system: CAKI-1 renal
[46] = test system: RPMI-8226 leukemia
[47] = test system: KM12 colon
[48] = test system: OVCAR-5 ovarian
[49] = test system: UO-31 renal
[50] = test system: SK-MEL-5 melanoma
[51] = test system: OVCAR-4 ovarian
[52] = test system: HOP-92 NSCLC
[53] = test system: MOLT-4 leukemia
[54] = test system: SF-539 CNS
[55] = test system: HS 578T breast
[56] = test system: SR leukemia
[57] = test system: U251 CNS

O=C(/C=C/c1cccc(Cl)c1)c1ccccc1
GI50 [1]: 13.1 µM | TGI [1]: 26.9 µM

O=C(NCCc1nccs1)c1cnc2c(S)cccc2c1
GI50 [1]: 4.13 µM | TGI [1]: 39 µM

C=CCn1c(C)nc2cc(Nc3nc(N4CCCC4)nc4nc[nH]c34)ccc21
GI50 [1]: > 100 µM | TGI [1]: > 100 µM

NC(=O)c1c(NC(=O)c2ccc(C(F)(F)F)cc2Cl)sc2c1CCC(=O)C2
GI50 [1]: 0.277 µM | TGI [1]: 1.04 µM

COc1cc(/C=C/C(=O)c2cccc(-n3cc(-c4ccccc4)[nH]c3=O)c2)ccc1O
GI50 [1]: 3.43 µM | TGI [1]: 22.2 µM

Cc1cc(N)c2cc(NC(=O)/C=C\c3ccccc3Cl)ccc2n1
GI50 [1]: 0.398 µM | TGI [1]: 1.48 µM

CC1=C(C(=O)Nc2cc(F)c(F)cc2F)C(c2ccc(N(C)C)cc2)C(C(=O)Nc2cc(F)c(F)cc2F)=C(C)N1
GI50 [1]: 30.1 µM | TGI [1]: > 100 µM

Nc1ccccc1SC(CC(=O)c1ccccc1)c1c(Cl)cccc1Cl (stereo not drawn)
GI50 [1]: 6.3 µM | TGI [1]: 27.9 µM

CC(C)(C)c1ccc(OCCCCCCCN2CCNCC2)cc1
GI50 [1]: 1.84 µM | TGI [1]: 3.58 µM

COc1ccc(C(=O)c2no[n+]([O-])c2C(=O)c2ccc(OC)cc2)cc1
GI50 [1]: 1.37 µM | TGI [1]: 2.78 µM

O=C1/C(=C/c2ccc([N+](=O)[O-])s2)Oc2ccc(Br)cc21
GI50 [1]: 0.263 µM | TGI [1]: 0.781 µM

COc1cc2c(cc1OCCCN1CCN(CCCOc3cc4c(cc3OC)C(=O)N3C[C@H](F)C[C@H]3C=N4)CC1)N=C[C@@H]1C[C@@H](F)CN1C2=O
GI50 [1]: < 0.01 µM | TGI [1]: 0.0397 µM

Cc1sc(C(NC(=O)OCCn2c([N+](=O)[O-])cnc2C)C(F)(F)Cl)nc1-c1ccc(OC(F)(F)F)cc1 (stereo not drawn)
GI50 [2]: 4.78 µM | TGI [2]: 20.1 µM | GI50 [3]: 8.7 µM | TGI [3]: 23.9 µM | GI50 [4]: 7.32 µM | TGI [4]: > 100 µM | GI50 [5]: 7.35 µM | TGI [5]: 20.7 µM | GI50 [6]: 4.97 µM | TGI [6]: 17.9 µM | GI50 [7]: 3.31 µM | TGI [7]: > 100 µM | GI50 [8]: 3.96 µM | TGI [8]: 15.8 µM | GI50 [9]: 3.42 µM | TGI [9]: 13.6 µM | GI50 [10]: 2.68 µM | TGI [10]: 10.3 µM | GI50 [11]: 3.26 µM | TGI [11]: 13.7 µM | GI50 [12]: 3.53 µM | TGI [12]: 15.4 µM | GI50 [13]: 5.8 µM | TGI [13]: 21.3 µM | GI50 [14]: 3.68 µM | TGI [14]: 13.3 µM | GI50 [15]: 3.87 µM | TGI [15]: 15.5 µM | GI50 [16]: 4.93 µM | TGI [16]: 17.4 µM | GI50 [17]: 3.04 µM | TGI [17]: 11.3 µM | GI50 [18]: 3.19 µM | TGI [18]: 12.1 µM | GI50 [19]: 6.15 µM | TGI [19]: 19.5 µM | GI50 [20]: 3.82 µM | TGI [20]: 15.3 µM | GI50 [21]: 1.43 µM | TGI [21]: 14.2 µM | GI50 [22]: 2.65 µM | TGI [22]: 12.6 µM | GI50 [23]: 3.6 µM | TGI [23]: 16.3 µM | GI50 [24]: 7.46 µM | TGI [24]: 22.7 µM | GI50 [25]: 7.75 µM | TGI [25]: 22.5 µM | GI50 [26]: 6.79 µM | TGI [26]: 21.8 µM | GI50 [27]: 3.78 µM | TGI [27]: 16.7 µM | GI50 [28]: 7.09 µM | TGI [28]: 22.6 µM | GI50 [29]: 4.56 µM | TGI [29]: 18.2 µM | GI50 [30]: 4.06 µM | TGI [30]: 24.1 µM | GI50 [31]: 2.8 µM | TGI [31]: 12.6 µM | GI50 [32]: 4.8 µM | TGI [32]: 17 µM | GI50 [33]: 2.32 µM | TGI [33]: 16.4 µM | GI50 [34]: 4.47 µM | TGI [34]: 15.9 µM | GI50 [35]: 5.57 µM | TGI [35]: 18.6 µM | GI50 [36]: 2.65 µM | TGI [36]: 14.8 µM | GI50 [37]: 4.84 µM | TGI [37]: 17.1 µM | GI50 [38]: 3.62 µM | TGI [38]: > 100 µM | GI50 [39]: 3.11 µM | TGI [39]: 12.8 µM | GI50 [40]: 3.37 µM | TGI [40]: 12.3 µM | GI50 [41]: 4.57 µM | TGI [41]: 20.4 µM | GI50 [42]: 3.56 µM | TGI [42]: 13 µM | GI50 [43]: 4.98 µM | TGI [43]: 20.6 µM | GI50 [44]: 12 µM | TGI [44]: 26.2 µM | GI50 [45]: 2.83 µM | TGI [45]: 11.8 µM | GI50 [46]: 3.41 µM | TGI [46]: 54.6 µM | GI50 [47]: 3.63 µM | TGI [47]: 14.7 µM | GI50 [1]: 2.37 µM | TGI [1]: 8.73 µM | GI50 [48]: 4.28 µM | TGI [48]: 17.6 µM | GI50 [49]: 2.77 µM | TGI [49]: 13.5 µM | GI50 [50]: 3.89 µM | TGI [50]: 14.7 µM | GI50 [51]: 3.85 µM | TGI [51]: 15.7 µM | GI50 [52]: 2.86 µM | TGI [52]: 11.6 µM | GI50 [53]: 3.74 µM | TGI [53]: 16.5 µM | GI50 [54]: 9.15 µM | TGI [54]: 21.4 µM | GI50 [55]: 2.55 µM | TGI [55]: 33 µM | GI50 [56]: 3.58 µM | TGI [56]: 30.6 µM | GI50 [57]: 5.38 µM | TGI [57]: 19.2 µM

COc1cccc(/C=C2\COc3ccc(O)c(O)c3C2=O)c1OC
GI50 [1]: 1.67 µM | TGI [1]: 3.91 µM

O=[N+]([O-])c1cc2c(ccc3ccccc32)o1
GI50 [1]: 0.169 µM | TGI [1]: 0.446 µM

CCCCCCCCCCCCNCCCc1ccccc1
GI50 [1]: 1.54 µM | TGI [1]: 3.17 µM

Cc1nc2ccccc2c(/C=C/c2ccc(F)cc2)c1C(=O)/C=C/c1ccccc1
GI50 [1]: 1.86 µM | TGI [1]: 4.26 µM

COc1cccc(C2=C(c3cn(C)c4c(C)cccc34)C(=O)NC2=O)c1
GI50 [1]: 20.6 µM | TGI [1]: > 25 µM

C=CC(=O)N1CCN(c2nc(OC[C@@H]3CCCN3C)nc3c(F)c(-c4nc(N)cc(C)c4C(F)(F)F)c(Cl)cc23)[C@@H](C)C1
GI50 [1]: 1.3 µM | TGI [1]: 2.7 µM

COC(=O)c1ccc(C)cc1C1CN=NC12Cc1c(C)cccc1C2=O (stereo not drawn)
GI50 [1]: 30.7 µM | TGI [1]: > 100 µM

O=C(Nc1cccc2[nH]c(C(F)(F)F)nc12)c1ccc(Br)cc1F
GI50 [1]: 2.4 µM | TGI [1]: 7.05 µM

CCn1cnc(C[C@H](NC(=O)[C@@H](NC(=O)Nc2cc(C(F)(F)F)cc(C(F)(F)F)c2)C(C)(C)C)C(=O)OC)c1
GI50 [1]: 5.18 µM | TGI [1]: > 10 µM

Cc1nc2sc(C(=O)Nc3cccc4c3OCCO4)c(N)c2cc1C(C)O (stereo not drawn)
GI50 [1]: 3.64 µM | TGI [1]: > 100 µM

O=C1C=CC(=O)N1c1ccc2ccccc2c1
GI50 [1]: 3.56 µM | TGI [1]: 14.4 µM

CCc1n(Cc2ccc3ccccc3c2)cc[n+]1Cc1ccc2ccccc2c1
GI50 [1]: 0.182 µM | TGI [1]: 0.859 µM

O=C(Nc1ccc(Br)cc1)c1cc(Br)ccc1O
GI50 [1]: 0.328 µM and 0.722 µM | TGI [1]: 1.68 µM and 3.57 µM

Nc1ncnc2occ(-c3ccc(NC(=O)Nc4cccc(C(F)(F)F)c4)cc3)c12
GI50 [1]: 3.62 µM | TGI [1]: 11.8 µM

CC(=O)OC1C(C)OC(Oc2c(-c3ccc(O)cc3)oc3cc(O)cc(O)c3c2=O)C(O)C1OC(C)=O (stereo not drawn)
GI50 [1]: 17.8 µM | TGI [1]: 42.8 µM

COc1ccc(/C(=N/O)c2cc(F)c(F)c(OC)c2F)cc1O
GI50 [1]: 0.552 µM | TGI [1]: > 100 µM

O=NN(CC(=O)NNc1ccccc1)CC(=O)NNc1ccccc1
GI50 [1]: > 78.3 µM | TGI [1]: > 100 µM

Nc1ncnc2c1ncn2C1OC(F)(COS(N)(=O)=O)C(O)C1O (stereo not drawn)
GI50 [1]: > 100 µM | TGI [1]: > 100 µM

Cc1nc2ccccc2c(/C=C/c2ccc(C(F)(F)F)cc2)c1C(=O)/C=C/c1ccccc1
GI50 [1]: 1.78 µM | TGI [1]: 3.7 µM

O=C1c2c[n+](Cc3ccccc3)ccc2-c2nc3ccccc3c3ccnc1c23
GI50 [1]: 0.389 µM | TGI [1]: 1.02 µM
